The values below come from US20240376085A1 (Janssen Pharmaceutica NV, priority 2021, published 2024).

What is called IC50 is the point on the concentration scale where inhibition reaches its midpoint. High values mean a need for much substance, low ones inhibition by little substance.

The test system of test [1] is IL-17A-induced G-CSF production in human normal keratinocyte (NHK). As to the kind of experiment: NHK assay: IL-17A-induced G-CSF production in normal human keratinocytes. It counts as cell-based. As to conditions: 24 h, IL-17A 5 ng/mL, average if tested more than once. As for the experimental part:
IL-17A acts directly on keratinocytes through binding to dimeric receptor IL-17RA/RC and drives the production of a number of inflammatory mediators known to be elevated in psoriasis lesional tissue. IL-17A small molecule inhibitors that block the IL-17A to interact with IL-17R would inhibit the IL-17A signaling in its targeted cells such as keratinocytes. The compound functional activity is evaluated for its impact on IL-17A-induced G-CSF production in human normal keratinocyte (NHK).
Adult normal human keratinocytes are cultured in keratinocyte growth medium (Lonza) in a flask till reaching ˜90% confluence, then cells are transferred to a 384-well plate at density of 3000-4000 cell/well. Recombinant human IL-17A (Gibco PHC9174) is pre-incubated with titrated compound or DMSO for 1 h at rt then added to the cell culture plate. The final concentration of IL-17A is 5 ng/mL and DMSO is 0.2%, in the culture containing 5% FBS. Cells are cultured/treated for 24 h at 37° C. Supernatants are collected and G-CSF production is measured through HTRF technology using Human G-CSF Kit (CisBio). G-CSF concentration was extrapolated from the standard curve and IC50 is determined using GraphPad Prism. Cell viability is also evaluated using CellTiter-Glo kit (Promega) and effect of compound on cell viability is compared to DMSO control.

In a further test the target is T1, IL-17A : IL-17RA binding (Homo sapiens, UniProt Q16552, K93Q).
T1 construct: Name: IL-17A-Flag
T1 sequence (Q16552 with tags, fused parts or gaps K93Q): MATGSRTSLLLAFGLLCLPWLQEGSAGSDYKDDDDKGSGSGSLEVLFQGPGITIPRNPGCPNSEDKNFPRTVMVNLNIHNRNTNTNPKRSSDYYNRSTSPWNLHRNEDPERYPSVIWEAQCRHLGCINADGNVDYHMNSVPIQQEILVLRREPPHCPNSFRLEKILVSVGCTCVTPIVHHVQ
The experiment in a line: IL-17A(FLAG-tagged):IL-17RA(His-tagged) binding disruption Eu-HTRF assay, Protocol 1. The settings on record: FLAG-IL-17A 2.5 nM at 2x final concentration; average if tested more than once. The text has this:
An antibody directed against the FLAG tag of IL-17A (SEQ ID NO: 1) is labeled with the HTRF donor chromophore (Europium-cryptate). IL-17A is present as a dimer that is “locked into” this quaternary structure due to the formation of loop-spanning […] disulfide bridges. The construct of IL-17RA used in the assay excludes the […] portion of the receptor and is fused to a C-terminal 10×His tag (SEQ ID NO:2). An antibody directed against the His tag of the IL-17RA chimera is labeled with the HTRF acceptor chromophore (“D2”). The fluorescence-resonance energy transfer (FRET) depends on the vicinity of the donor chromophore to the acceptor, and interruption of the binding between the IL-17A and IL-17RA causes the reduction/loss of FRET. Therefore, this assay allows to evaluate the compound effect on the binding IL-17A and IL-17RA by monitoring the fluorescence intensity of donor vs acceptor. The assay was run using either Protocol 1 or Protocol 2 as described below.
Protocol 1. 40 nl of 2-fold serial diluted compound solution for total 22 dilution points is added into each well of a 1536-well, white, low-volume, non-binding plate (Greiner #782904), then 2 μl of FLAG tagged IL-17A at 2× final concentration (2.5 nM) in solution of PBS+0.01% Triton-X100 is added to each well. The assay plate is briefly centrifuged then incubated for 1 h at rt. A mixed solution is prepared containing 2×5 nM 10HIS×IL-17RA, 2×2.5 nM Eu-anti-FLAG (CISBIO), 2×5 nM D2-anti-HIS (CISBIO) in PBS+0.01% Triton-X100+200 mM Potassium Fluoride (Sigma 60238) and 2 μl of mix is added to each well of the assay plate. The plate is briefly centrifuged then incubated for 2 h at rt. The HTRF intensities at the wavelength of donor (620 nm) and acceptor (665 nm) are measured using BMG Pherastar. The ratio between intensities at two wavelengths is calculated and plotted against the compound concentration and the data is fitted to a one-site competition model to yield IC50 of the compound.
(In general: TR-FRET usually uses a lanthanide donor and a delayed reading to cut background.)

The structures appear in SMILES notation. Bounds are passed on as bounds.

As to `C[C@@H](NC(=O)CCC(F)(F)F)c1ccc2[nH]c([C@@H](NC(=O)c3nc(CCC(F)(F)F)cs3)C3CCC(F)(F)CC3)nc2c1` [Example 201, N—((S)-(4,4-Difluorocyclohexyl)(5-((R)-1-(4,4,4-trifluorobutanamido)ethyl)-1H-benzo[d]imidazol-2-yl)methyl)-4-(3,3,3-trifluoropropyl) thiazole-2-carboxamide], the IC50 is > 100 nM in test [1] (Homo sapiens, Keratinocyte) and > 100 nM at IL-17A : IL-17RA binding.
In the case of `C[C@@H](NC(=O)CCC(F)(F)F)c1ccc2[nH]c([C@@H](NC(=O)[C@H]3C[C@H]3F)C3CCC(F)(F)CC3)nc2c1` [Example 99, (1R,2R)—N—((S)-(4,4-Difluorocyclohexyl)(5-((R)-1-(4,4,4-trifluorobutanamido)ethyl)-1H-benzo[d]imidazol-2-yl)methyl)-2-fluorocyclopropane-1-carboxamide], the concentration for half-maximal inhibition (IC50) in test [1] (Homo sapiens, Keratinocyte) was > 100 nM; on IL-17A : IL-17RA binding it was > 100 nM.
For the compound `CC(C)C(NC(=O)CCC(F)(F)F)c1ccc2[nH]c([C@@H](NC(=O)c3ccnn3C)C3CCC(F)(F)CC3)nc2c1` (single isomer, unassigned) [Example 44, N—((S)-(4,4-Difluorocyclohexyl)(5-((S*)-2-methyl-1-(4,4,4-trifluorobutanamido)propyl)-1H-benzo[d]imidazol-2-yl)methyl)-1-methyl-1H-pyrazole-5-carboxamide], the IC50 in test [1] (Homo sapiens, Keratinocyte) was > 100 nM; at IL-17A : IL-17RA binding it was > 100 nM.
On to `Cc1nonc1C(=O)N[C@H](c1nc2cc([C@@H](NC(=O)CC3CC(F)(F)C3)C3CC3)ccc2[nH]1)C1CCC(F)(F)CC1` [Example 145, N—((S)-(5-((S)-Cyclopropyl(2-(3,3-difluorocyclobutyl)acetamido)methyl)-1H-benzo[d]imidazol-2-yl)(4,4-difluorocyclohexyl)methyl)-4-methyl-1,2,5-oxadiazole-3-carboxamide], for which the IC50 in test [1] (Homo sapiens, Keratinocyte) is > 100 nM; at IL-17A : IL-17RA binding, > 100 nM.
Regarding `CC(C)CC(NC(=O)CCC(F)(F)F)c1ccc2[nH]c([C@@H](NC(=O)c3ccnn3C)C3CCC(F)(F)CC3)nc2c1` (single isomer, unassigned) [Example 49, N—((S)-(4,4-Difluorocyclohexyl)(5-((R*)-3-methyl-1-(4,4,4-trifluorobutanamido)butyl)-1H-benzo[d]imidazol-2-yl)methyl)-1-methyl-1H-pyrazole-5-carboxamide], the IC50 is < 50 nM in test [1] and > 100 nM on IL-17A : IL-17RA binding.
For `C[C@@H](NC(=O)CCC(F)(F)F)c1ccc2nc([C@@H](NC(=O)c3cnnn3CC3CC(F)(F)C3)C3CCC(F)(F)CC3)[nH]c2c1` [Example 66, 1-((3,3-Difluorocyclobutyl)methyl)-N—((S)-(4,4-difluorocyclohexyl)(6-((R)-1-(4,4,4-trifluorobutanamido)ethyl)-1H-benzo[d]imidazol-2-yl)methyl)-1H-1,2,3-triazole-5-carboxamide], the half-inhibitory concentration (IC50) in test [1] (Homo sapiens, Keratinocyte) was 50 to 100 nM; at IL-17A : IL-17RA binding, > 100 nM.
As to `CC(C)n1nccc1C(=O)N[C@H](c1nc2ccc([C@H](NC(=O)CC3CC(F)(F)C3)C3CC3)cc2[nH]1)[C@@H]1C[C@H]2C[C@H]2C1` [Example 255, N—((S)-((1R,3s,5S)-Bicyclo[3.1.0]hexan-3-yl)(6-((R)-cyclopropyl(2-(3,3-difluorocyclobutyl)acetamido)methyl)-1H-benzo[d]imidazol-2-yl)methyl)-1-isopropyl-1H-pyrazole-5-carboxamide], the half-inhibitory concentration (IC50) in test [1] (Homo sapiens, Keratinocyte) was < 50 nM; on IL-17A : IL-17RA binding it was 50 to 100 nM.
Take `C[C@@H](NC(=O)CCC(F)(F)F)c1ccc2nc([C@@H](NC(=O)c3cccc(C#N)c3)C3CCC(F)(F)CC3)[nH]c2c1` [Example 131, 3-Cyano-N—((S)-(4,4-difluorocyclohexyl)(6-((R)-1-(4,4,4-trifluorobutanamido)ethyl)-1H-benzo[d]imidazol-2-yl)methyl)benzamide]: the IC50 in test [1] (Homo sapiens, Keratinocyte) was > 100 nM; at IL-17A : IL-17RA binding, > 100 nM.
Consider `C[C@@H](NC(=O)CCC(F)(F)F)c1ccc2[nH]c([C@@H](NC(=O)c3cnn(C)c3CCC(F)(F)F)C3CCC(F)(F)CC3)nc2c1` [Example 6, N—[(S)-(4,4-Difluorocyclohexyl)-[6-[(1R)-1-(4,4,4-trifluorobutanoylamino)ethyl]-1H-benzimidazol-2-yl]methyl]-1-methyl-5-(3,3,3-trifluoropropyl)pyrazole-4-carboxamide], for which the IC50 in test [1] (Homo sapiens, Keratinocyte) was > 100 nM; at IL-17A : IL-17RA binding, > 100 nM.
As to `Cn1nccc1C(=O)N[C@H](c1nc2cc(C(CC3CCC3)NC(=O)CCC(F)(F)F)ccc2[nH]1)C1CCC(F)(F)CC1` (single isomer, unassigned) [Example 47, N—((S)-(5-((R*)-2-Cyclobutyl-1-(4,4,4-trifluorobutanamido)ethyl)-1H-benzo[d]imidazol-2-yl)(4,4-difluorocyclohexyl)methyl)-1-methyl-1H-pyrazole-5-carboxamide], the IC50 is < 50 nM in test [1] and > 100 nM on IL-17A : IL-17RA binding.
For the compound `C[C@@H](NC(=O)CCC(F)(F)F)c1ccc2[nH]c([C@@H](NC(=O)c3cnnn3CC3CC(F)(F)C3(F)F)C3CCC(F)(F)CC3)nc2c1` (stereo partly drawn) [Example 82, N—((S)-(4,4-Difluorocyclohexyl)(5-((R)-1-(4,4,4-trifluorobutanamido)ethyl)-1H-benzo[d]imidazol-2-yl)methyl)-1-((2,2,3,3-tetrafluorocyclobutyl)methyl)-1H-1,2,3-triazole-5-carboxamide], the concentration for half-maximal inhibition (IC50) is > 100 nM in test [1] (Homo sapiens, Keratinocyte) and > 100 nM at IL-17A : IL-17RA binding.
As to `C[C@@H](NC(=O)CCC(F)(F)F)c1ccc2[nH]c([C@@H](NC(=O)c3cn(CC4CCC4)nc3C(N)=O)C3CCC(F)(F)CC3)nc2c1` [Example 89, 1-(Cyclobutylmethyl)-N^4—((S)-(4,4-difluorocyclohexyl)(5-((R)-1-(4,4,4-trifluorobutanamido)ethyl)-1H-benzo[d]imidazol-2-yl)methyl)-1H-pyrazole-3,4-dicarboxamide], the IC50 in test [1] (Homo sapiens, Keratinocyte) was > 100 nM; on IL-17A : IL-17RA binding, > 100 nM.
On to `CC(CC(=O)N[C@H](C)c1ccc2nc([C@@H](NC(=O)c3ccnn3CC(F)(F)F)C3CCC(F)(F)CC3)[nH]c2c1)C(F)(F)F` (single isomer, unassigned) [Example 133, N—((S)-(4,4-Difluorocyclohexyl)(6-((R)-1-((R*)-4,4,4-trifluoro-3-methylbutanamido)ethyl)-1H-benzo[d]imidazol-2-yl)methyl)-1-(2,2,2-trifluoroethyl)-1H-pyrazole-5-carboxamide], for which the IC50 in test [1] (Homo sapiens, Keratinocyte) is > 100 nM; at IL-17A : IL-17RA binding, > 100 nM.
For `Cc1nonc1C(=O)N[C@H](c1nc2ccc([C@H](NC(=O)CC3CC(F)(F)C3)C3CC3)cc2[nH]1)[C@@H]1CCCC(F)(F)C1` [Example 246, N—((S)-(6-((R)-Cyclopropyl(2-(3,3-difluorocyclobutyl)acetamido)methyl)-1H-benzo[d]imidazol-2-yl)((R)-3,3-difluorocyclohexyl)methyl)-4-methyl-1,2,5-oxadiazole-3-carboxamide], the IC50 is < 50 nM in test [1] (Homo sapiens, Keratinocyte) and < 50 nM at IL-17A : IL-17RA binding.
Consider `C[C@@H](NC(=O)CCC(F)(F)F)c1ccc2[nH]c([C@@H](NC(=O)c3ncn(CCC(F)(F)F)n3)C3CCC(F)(F)CC3)nc2c1` [Example 228, N—((S)-(4,4-Difluorocyclohexyl)(5-((R)-1-(4,4,4-trifluorobutanamido)ethyl)-1H-benzo[d]imidazol-2-yl)methyl)-1-(3,3,3-trifluoropropyl)-1H-1,2,4-triazole-3-carboxamide], for which the IC50 in test [1] (Homo sapiens, Keratinocyte) was > 100 nM; on IL-17A : IL-17RA binding, > 100 nM.
